Test: Safety in phase 1/1b study (DLTs, TRAEs, TEAEs; CTCAE v4.03)
Type: in vivo, human
Source text: Safety assessments included evaluation of DLTs, AEs, physical examinations, vital sign measurements, electrocardiogram recordings and laboratory tests.
A DLT was defined as a grade ≥ 4 hematologic abnormality lasting ≥ 4 days; grade 3 thrombocytopenia with clinically significant bleeding; febrile neutropenia; clinically significant grade ≥ 3 non-hematologic AEs not related to underlying malignancy; intolerable grade 2 AEs; or toxicity resulting in an inability to deliver 80% of the dose during the first treatment cycle.
The safety population included all patients who received ≥ 1 dose of sitravatinib. […] The PK evaluable population included all patients with sufficient concentration-time data for PK parameter evaluation. The modified intent-to-treat (mITT) population included all phase 1b patients who received ≥ 1 dose of study drug.

COCCNCc1ccc(-c2cc3nccc(Oc4ccc(NC(=O)C5(C(=O)Nc6ccc(F)cc6)CC5)cc4F)c3s2)nc1 [sitravatinib, Sitravatinib]
Patients discontinued due to TRAEs (120 mg): 11.3%
Patients with grade ≥ 3 TRAEs (120 mg arm): 51.6%
Patients with serious TRAEs (120 mg arm): 8.1%
ALT increased TEAE, any grade (120 mg phase 1b): 17 (27.4) n (%)
ALT increased TEAE, grade ≥3 (120 mg phase 1b): 1 (1.6) n (%)
ALT increased TRAE, any grade (120 mg phase 1b): 15 (24.2) n (%)
ALT increased TRAE, grade ≥3 (120 mg phase 1b): 1 (1.6) n (%)
AST increased TEAE, any grade (120 mg phase 1b): 16 (25.8) n (%)
AST increased TEAE, grade ≥3 (120 mg phase 1b): 0 n (%)
AST increased TRAE, any grade (120 mg phase 1b): 14 (22.6) n (%)
AST increased TRAE, grade ≥3 (120 mg phase 1b): 0 n (%)
Abdominal pain TEAE, any grade (120 mg phase 1b): 14 (22.6) n (%)
Abdominal pain TEAE, grade ≥3 (120 mg phase 1b): 3 (4.8) n (%)
Abdominal pain TRAE, any grade (120 mg phase 1b): 8 (12.9) n (%)
Abdominal pain TRAE, grade ≥3 (120 mg phase 1b): 0 n (%)
Anemia TEAE, any grade (120 mg phase 1b): 10 (16.1) n (%)
Anemia TEAE, grade ≥3 (120 mg phase 1b): 3 (4.8) n (%)
Any TEAE (120 mg phase 1b): 60 (96.8) n (%)
Any TRAE (120 mg phase 1b): 58 (93.5) n (%)
Asthenia TEAE, any grade (120 mg phase 1b): 7 (11.3) n (%)
Asthenia TEAE, grade ≥3 (120 mg phase 1b): 0 n (%)
Back pain TEAE, any grade (120 mg phase 1b): 6 (9.7) n (%)
Back pain TEAE, grade ≥3 (120 mg phase 1b): 0 n (%)
Blood and lymphatic system disorders TEAE, any grade (120 mg phase 1b): 16 (25.8) n (%)
Blood and lymphatic system disorders TEAE, grade ≥3 (120 mg phase 1b): 7 (11.3) n (%)
Blood creatinine increased TEAE, any grade (120 mg phase 1b): 3 (4.8) n (%)
Blood creatinine increased TEAE, grade ≥3 (120 mg phase 1b): 0 n (%)
Cardiac disorders TEAE, any grade (120 mg phase 1b): 6 (9.7) n (%)
Cardiac disorders TEAE, grade ≥3 (120 mg phase 1b): 2 (3.2) n (%)
Constipation TEAE, any grade (120 mg phase 1b): 21 (33.9) n (%)
Constipation TEAE, grade ≥3 (120 mg phase 1b): 0 n (%)
Constipation TRAE, any grade (120 mg phase 1b): 11 (17.7) n (%)
Constipation TRAE, grade ≥3 (120 mg phase 1b): 0 n (%)
Cough TEAE, any grade (120 mg phase 1b): 7 (11.3) n (%)
Cough TEAE, grade ≥3 (120 mg phase 1b): 0 n (%)
Decreased appetite TEAE, any grade (120 mg phase 1b): 21 (33.9) n (%)
Decreased appetite TEAE, grade ≥3 (120 mg phase 1b): 2 (3.2) n (%)
Decreased appetite TRAE, any grade (120 mg phase 1b): 17 (27.4) n (%)
Decreased appetite TRAE, grade ≥3 (120 mg phase 1b): 1 (1.6) n (%)
Dehydration TEAE, any grade (120 mg phase 1b): 8 (12.9) n (%)
Dehydration TEAE, grade ≥3 (120 mg phase 1b): 0 n (%)
Diarrhea TEAE, any grade (120 mg phase 1b): 36 (58.1) n (%)
Diarrhea TEAE, grade ≥3 (120 mg phase 1b): 4 (6.5) n (%)
Diarrhea TRAE, any grade (120 mg phase 1b): 31 (50.0) n (%)
Diarrhea TRAE, grade ≥3 (120 mg phase 1b): 4 (6.5) n (%)
Dizziness TEAE, any grade (120 mg phase 1b): 10 (16.1) n (%)
Dizziness TEAE, grade ≥3 (120 mg phase 1b): 0 n (%)
Dizziness TRAE, any grade (120 mg phase 1b): 6 (9.7) n (%)
Dizziness TRAE, grade ≥3 (120 mg phase 1b): 0 n (%)
Dry mouth TEAE, any grade (120 mg phase 1b): 7 (11.3) n (%)
Dry mouth TEAE, grade ≥3 (120 mg phase 1b): 0 n (%)
Dry mouth TRAE, any grade (120 mg phase 1b): 7 (11.3) n (%)
Dry mouth TRAE, grade ≥3 (120 mg phase 1b): 0 n (%)
Dysphonia TEAE, any grade (120 mg phase 1b): 16 (25.8) n (%)
Dysphonia TEAE, grade ≥3 (120 mg phase 1b): 0 n (%)
Dysphonia TRAE, any grade (120 mg phase 1b): 12 (19.4) n (%)
Dysphonia TRAE, grade ≥3 (120 mg phase 1b): 0 n (%)
Dyspnea TEAE, any grade (120 mg phase 1b): 5 (8.1) n (%)
Dyspnea TEAE, grade ≥3 (120 mg phase 1b): 1 (1.6) n (%)
Edema peripheral TEAE, any grade (120 mg phase 1b): 6 (9.7) n (%)
Edema peripheral TEAE, grade ≥3 (120 mg phase 1b): 0 n (%)
Endocrine disorders TEAE, any grade (120 mg phase 1b): 20 (32.3) n (%)
Fatigue TEAE, any grade (120 mg phase 1b): 26 (41.9) n (%)
Fatigue TEAE, grade ≥3 (120 mg phase 1b): 7 (11.3) n (%)
Fatigue TRAE, any grade (120 mg phase 1b): 21 (33.9) n (%)
Fatigue TRAE, grade ≥3 (120 mg phase 1b): 6 (9.7) n (%)
Gastrointestinal disorders TEAE, any grade (120 mg phase 1b): 53 (85.5) n (%)
General disorders and administration site conditions TEAE, any grade (120 mg phase 1b): 38 (61.3) n (%)
General disorders and administration site conditions TEAE, grade ≥3 (120 mg phase 1b): 8 (12.9) n (%)
Headache TEAE, grade ≥3 (120 mg phase 1b): 1 (1.6) n (%)
Hypertension TEAE, any grade (120 mg phase 1b): 25 (40.3) n (%)
Hypertension TEAE, grade ≥3 (120 mg phase 1b): 12 (19.4) 12 (19.4) n (%)
Hypertension TRAE, any grade (120 mg phase 1b): 24 (38.7) n (%)
Hypertension TRAE, grade ≥3 (120 mg phase 1b): 11 (17.7) n (%)
Hypokalemia TEAE, any grade (120 mg phase 1b): 4 (6.5) n (%)
Hypokalemia TEAE, grade ≥3 (120 mg phase 1b): 0 n (%)
Hypomagnesemia TEAE, any grade (120 mg phase 1b): 4 (6.5) n (%)
Hypomagnesemia TEAE, grade ≥3 (120 mg phase 1b): 0 n (%)
Hyponatremia TEAE, any grade (120 mg phase 1b): 6 (9.7) n (%)

— publication PMC9395446, “First-in-human phase 1/1b study to evaluate sitravatinib in patients with advanced solid tumors” (Investigational New Drugs, 2022)
